One may read the viability, T/C as the ratio of treated to control. In general, IC50 refers to the point on the concentration scale where inhibition reaches its midpoint. Broadly, the pIC50 is the negative decadic logarithm of the IC50, by convention in mol/L.

pIC50: −log10 of the molar value. “And” between values parts separate entries of the source, which are not always exact repeats. Equal entries are not always repeated. Where only a bound is given, the exact number is not on record here.

For the assay, the system named is LG0567-F671-PDC KRAS tumor spheroid viability. Kind of assay: Anticancer human tumor LG0567-F671-PDC patient-derived lung adenocarcinoma cell line growth inhibition [KRAS2]. The following applies: spheroids with HUVEC and MSC; for viability, T/C: stronger effect = lower value; for pIC50: curve of first compound. An outline of the steps:
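Combination screen of spheroid viability in tumor-cell co-cultures with endothelial (HUVEC) and mesenchymal stem cell stroma. Each agent was tested in half-log dilutions, topping at clinical Cmax or at 10 microM without a known Cmax.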
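Also: drug exposure lasted seven days after spheroids formed for three days.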
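For viability, T/C in this document: 100% = DMSO vehicle control viability.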

In the case of `CC1OCC2(CCN(c3cnc(Sc4ccnc(N)c4Cl)c(N)n3)CC2)C1N` (configuration not stated), the viability, T/C reads like this: (compound 0.0316 µM) 81.9% and 81.1% and 73.7%; (compound 0.1 µM) 56.3% [middle of 20 runs]; (compound 0.316 µM) 38.5% [middle of 20 runs]; (compound 3.16 µM) 21.6% [middle of 20 runs]; (compound 10 µM) 15.5% [middle of 19 runs]. Besides, the IC50 by setting is: (compound alone, run of 07/26/2021) 134 nM [middle of 6 runs]; (curve of compound) 163 nM [middle of 5 runs].

Take `COc1cc(Nc2ncc3c(n2)-c2ccc(Cl)cc2C(c2c(F)cccc2OC)=NC3)ccc1C(=O)O` + CNCc1ccccc1-c1csc(C(C)Nc2nc(C)nc3cc(OC)c(OC)cc23)c1: the pIC50 runs as follows: (second compound 0.1 µM) 5.52; (second compound 0.316 µM) 6.46; (second compound 1 µM) 6.58; (second compound 3.16 µM) above 7.50; (second compound 10 µM) above 7.50. Moreover, the viability, T/C is 72% (second compound 0.1 µM, first compound 0.0316 µM); 62% (second compound 0.1 µM, first compound 0.1 µM); 58.1% (second compound 0.1 µM, first compound 0.316 µM); 60.6% (second compound 0.1 µM, first compound 1 µM); 51.4% (second compound 0.1 µM, first compound 3.16 µM); 37.8% (second compound 0.1 µM, first compound 10 µM). For the same compound, the viability, T/C (second compound 0.316 µM, first compound 0.0316 µM) is 56.3%; the viability, T/C (second compound 0.316 µM, first compound 0.1 µM) was 54.3%; the viability, T/C (second compound 0.316 µM, first compound 0.316 µM) is 48.2%; the viability, T/C (second compound 0.316 µM, first compound 1 µM) is 45.6%; the viability, T/C (second compound 0.316 µM, first compound 3.16 µM) was 42.4%; the viability, T/C (second compound 0.316 µM, first compound 10 µM) was 32%. Moreover, the viability, T/C runs as follows: (second compound 1 µM, first compound 0.0316 µM) 52.4%; (second compound 1 µM, first compound 0.1 µM) 53.4%; (second compound 1 µM, first compound 0.316 µM) 47%; (second compound 1 µM, first compound 1 µM) 48.2%; (second compound 1 µM, first compound 3.16 µM) 37.8%; (second compound 1 µM, first compound 10 µM) 29%. For the same compound, the viability, T/C (second compound 3.16 µM, first compound 0.0316 µM) is 12.8%; the viability, T/C (second compound 3.16 µM, first compound 0.1 µM) was 16.8%; the viability, T/C (second compound 3.16 µM, first compound 0.316 µM) is 14%; the viability, T/C (second compound 3.16 µM, first compound 1 µM) was 3.3%; the viability, T/C (second compound 3.16 µM, first compound 3.16 µM) was 0.97%; the viability, T/C (second compound 3.16 µM, first compound 10 µM) was 1.05%. The viability, T/C (second compound 10 µM, first compound 0.0316 µM) was 0.9%; the viability, T/C (second compound 10 µM, first compound 0.1 µM) was 0.24%; the viability, T/C (second compound 10 µM, first compound 0.316 µM) is 0.13%; the viability, T/C (second compound 10 µM, first compound 1 µM) is 0.43%; the viability, T/C (second compound 10 µM, first compound 3.16 µM) was 0.12%; the viability, T/C (second compound 10 µM, first compound 10 µM) was 1.01%.

Values taken from PubChem BioAssay AID1963856 (Molecular Pharmacology Branch, DTP, NCI, 2024).
